System: female Sprague-Dawley mature and young adult rats
Test: Biomechanical testing: L3, L4 vertebral compression
Format: in vivo, rat
Settings: for AUC (work to failure), percent difference from Vehicle Control / Apparent Strength, percent difference from Vehicle Control / Modulus, percent difference from Vehicle Control / Peak Load, percent difference from Vehicle Control / Stiffness, percent difference from Vehicle Control / Toughness, percent difference from Vehicle Control / Yield Load, percent difference from Vehicle Control / Yield Stress, percent difference from Vehicle Control / AUC (work to failure) / Apparent Strength / Modulus / Peak Load / Stiffness / Toughness / Yield Load / Yield Stress: L3 + L4 vertebral bodies; for AUC (work to failure) / Apparent Strength / Modulus / Peak Load / Stiffness / Toughness / Yield Load / Yield Stress: mean
Description: Biomechanical testing was performed using an 858 Mini Bionix Servohydraulic Test System, Model 242.03. All data was collected using TestWorks® version 3.8A for TestStar™ software, version 4.0C.
At necropsy, all specimens were cleaned of excess tissue (not scraped) and individually wrapped in gauze soaked with saline, covered with plastic film and placed in an appropriately labelled plastic bag. Bone samples were retained frozen (ca −20° C.) until subjected to the following biomechanical evaluations:
For compression testing, the vertebral body of the vertebrae was isolated by removing the vertebral arch and removing both inter-vertebral discs. The section obtained had two parallel cut surfaces and the trabecular bone exposed.
The L3 and L4 vertebral body were tested in compression to failure. The loading rate was set at 20 mm/min. Load and displacement data were collected and apparent strength and modulus were calculated using the peak load, stiffness, individual vertebral body height and cross sectional area from the pQCT scans. The work to failure was determined from the area under the curve (AUC) and toughness was calculated. Yield load was originally derived using a 0.2% off-set however a 0.1% off-set was considered more appropriate and yield stress was calculated. All data derived from the 0.2% off-set yield load was kept with the study file but not reported.

Compound: COc1ccc(Cc2c(OC3OC(CO)C(F)C(O)C3O)n[nH]c2C(F)(F)F)cc1 (centres unmarked) [Example 5 of formula II]
- Strength parameters at the lumbar spine (50 mg/kg/day): positively affected
- AUC (work to failure), percent difference from Vehicle Control (mature adults, 10 mg/kg/day): 3.5%
- Apparent Strength, percent difference from Vehicle Control (mature adults, 10 mg/kg/day): 3.4%
- Modulus, percent difference from Vehicle Control (mature adults, 10 mg/kg/day): −2.0%
- Peak Load, percent difference from Vehicle Control (mature adults, 10 mg/kg/day): 6.0%
- Stiffness, percent difference from Vehicle Control (mature adults, 10 mg/kg/day): 0.9%
- Toughness, percent difference from Vehicle Control (mature adults, 10 mg/kg/day): 2.0%
- Yield Load, percent difference from Vehicle Control (mature adults, 10 mg/kg/day): 4.3%
- Yield Stress, percent difference from Vehicle Control (mature adults, 10 mg/kg/day): 2.1%
- AUC (work to failure) (mature adults, 10 mg/kg/day): 21.5 N-mm
- Apparent Strength (mature adults, 10 mg/kg/day): 48.3 MPa
- Modulus (mature adults, 10 mg/kg/day): 2102.6 MPa
- Peak Load (mature adults, 10 mg/kg/day): 375.5 N
- Stiffness (mature adults, 10 mg/kg/day): 5308.6 N/mm
- Toughness (mature adults, 10 mg/kg/day): 0.9 MPa
- Yield Load (mature adults, 10 mg/kg/day): 329.3 N
- Yield Stress (mature adults, 10 mg/kg/day): 42.5 MPa
- AUC (work to failure), percent difference from Vehicle Control (mature adults, 50 mg/kg/day): 22.1%
- Apparent Strength, percent difference from Vehicle Control (mature adults, 50 mg/kg/day): 14.1%
- Modulus, percent difference from Vehicle Control (mature adults, 50 mg/kg/day): 2.5%
- Peak Load, percent difference from Vehicle Control (mature adults, 50 mg/kg/day): 21.6%
- Stiffness, percent difference from Vehicle Control (mature adults, 50 mg/kg/day): 17.8%
- Toughness, percent difference from Vehicle Control (mature adults, 50 mg/kg/day): 20.6%
- Yield Load, percent difference from Vehicle Control (mature adults, 50 mg/kg/day): 16.6%
- Yield Stress, percent difference from Vehicle Control (mature adults, 50 mg/kg/day): 9.2%
- AUC (work to failure) (mature adults, 50 mg/kg/day): 25.4 N-mm
- Apparent Strength (mature adults, 50 mg/kg/day): 53.3 MPa
- Modulus (mature adults, 50 mg/kg/day): 2197.6 MPa
- Peak Load (mature adults, 50 mg/kg/day): 430.6 N
- Stiffness (mature adults, 50 mg/kg/day): 6194.6 N/mm
- Toughness (mature adults, 50 mg/kg/day): 1.1 MPa
- Yield Load (mature adults, 50 mg/kg/day): 368.0 N
- Yield Stress (mature adults, 50 mg/kg/day): 45.5 MPa
- AUC (work to failure), percent difference from Vehicle Control (young adults, 10 mg/kg/day): −9.8%
- Apparent Strength, percent difference from Vehicle Control (young adults, 10 mg/kg/day): 3.5%
- Modulus, percent difference from Vehicle Control (young adults, 10 mg/kg/day): 19.2%
- Peak Load, percent difference from Vehicle Control (young adults, 10 mg/kg/day): 5.2%
- Stiffness, percent difference from Vehicle Control (young adults, 10 mg/kg/day): 12.0%
- Toughness, percent difference from Vehicle Control (young adults, 10 mg/kg/day): −19.6%
- Yield Load, percent difference from Vehicle Control (young adults, 10 mg/kg/day): 8.3%
- Yield Stress, percent difference from Vehicle Control (young adults, 10 mg/kg/day): 6.1%
- AUC (work to failure) (young adults, 10 mg/kg/day): 14.4 N-mm
- Apparent Strength (young adults, 10 mg/kg/day): 34.4 MPa
- Modulus (young adults, 10 mg/kg/day): 1559.1 MPa
- Peak Load (young adults, 10 mg/kg/day): 255.9 N
- Stiffness (young adults, 10 mg/kg/day): 4009.8 N/mm
- Toughness (young adults, 10 mg/kg/day): 0.7 MPa
- Yield Load (young adults, 10 mg/kg/day): 222.5 N
- Yield Stress (young adults, 10 mg/kg/day): 29.9 MPa
- AUC (work to failure), percent difference from Vehicle Control (young adults, 50 mg/kg/day): 2.1%
- Apparent Strength, percent difference from Vehicle Control (young adults, 50 mg/kg/day): 16.4%
- Modulus, percent difference from Vehicle Control (young adults, 50 mg/kg/day): 23.3%
- Peak Load, percent difference from Vehicle Control (young adults, 50 mg/kg/day): 10.2%
- Stiffness, percent difference from Vehicle Control (young adults, 50 mg/kg/day): 10.3%
- Toughness, percent difference from Vehicle Control (young adults, 50 mg/kg/day): 1.5%
- Yield Load, percent difference from Vehicle Control (young adults, 50 mg/kg/day): 9.7%
- Yield Stress, percent difference from Vehicle Control (young adults, 50 mg/kg/day): 15.8%
- AUC (work to failure) (young adults, 50 mg/kg/day): 16.3 N-mm
- Apparent Strength (young adults, 50 mg/kg/day): 38.7 MPa
- Modulus (young adults, 50 mg/kg/day): 1613.3 MPa
- Peak Load (young adults, 50 mg/kg/day): 268.0 N
- Stiffness (young adults, 50 mg/kg/day): 3951.0 N/mm
- Toughness (young adults, 50 mg/kg/day): 0.9 MPa
- Yield Load (young adults, 50 mg/kg/day): 225.4 N
- Yield Stress (young adults, 50 mg/kg/day): 32.7 MPa

Source: patent US20120270819A1, “USE OF COMPOUNDS WITH SGLT-1/SGLT-2 INHIBITOR ACTIVITY FOR PRODUCING MEDICAMENTS FOR TREATMENT OF BONE DISEASE” (SANOFI, priority 2009, published 2012)
